# In publication PMC5036131, “Fragment-based discovery of a new family of non-peptidic small-molecule cyclophilin inhibitors with potent antiviral activities” (Nature Communications, 2016):
# What was measured:
# CYP2C19 = CYP2C19 (Homo sapiens, UniProt P33261); assay: Cytochrome P450 enzyme inhibition assay, CYP2C19; assay type: in vitro ADME; parameters: incubated with human hepatic microsomal fractions and NADPH; from tissue; host or cells: human hepatic microsomal fractions; details: human hepatic microsomal fractions, up to 25 μM
# Chain of CYP2C19 (P33261 whole entry): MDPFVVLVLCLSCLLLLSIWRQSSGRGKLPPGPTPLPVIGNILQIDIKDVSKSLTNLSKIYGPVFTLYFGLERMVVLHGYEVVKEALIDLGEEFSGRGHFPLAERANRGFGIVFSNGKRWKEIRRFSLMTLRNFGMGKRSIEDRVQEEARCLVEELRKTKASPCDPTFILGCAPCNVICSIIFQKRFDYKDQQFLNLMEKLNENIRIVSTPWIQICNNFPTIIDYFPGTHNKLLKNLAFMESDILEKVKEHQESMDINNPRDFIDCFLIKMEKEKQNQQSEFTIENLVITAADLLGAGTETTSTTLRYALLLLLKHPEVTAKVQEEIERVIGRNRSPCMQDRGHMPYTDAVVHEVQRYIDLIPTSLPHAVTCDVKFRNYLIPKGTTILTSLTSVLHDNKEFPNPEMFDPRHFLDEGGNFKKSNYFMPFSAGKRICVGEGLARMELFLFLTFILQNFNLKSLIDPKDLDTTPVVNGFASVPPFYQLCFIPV
# Procedure: (§1) Up to 25 μM of compounds 29 and 30 was incubated with human hepatic microsomal fractions and NADPH in the presence of individual probe substrates. All assays were designed so that conditions were linear with respect to time and protein concentration. Substrates were present at concentrations equal to or lower than their respective Km values. Enzyme selective products were determined by fluorometry (ethoxyresorufin O-deethylase) or by specific LC-MS/MS assays. Relative enzyme activities were determined by comparison with those assayed with DMSO vehicle instead of inhibitor. IC50 values were calculated by nonlinear curve fitting using a sigmoidal model. Positive control inhibitors for each enzyme were tested in parallel.
# CYP2C9 = CYP2C9 (Homo sapiens, UniProt P11712); assay: Cytochrome P450 enzyme inhibition assay, CYP2C9; assay type: in vitro ADME; parameters: incubated with human hepatic microsomal fractions and NADPH; from tissue; host or cells: human hepatic microsomal fractions; details: human hepatic microsomal fractions, up to 25 μM
# Chain of CYP2C9 (P11712 whole entry): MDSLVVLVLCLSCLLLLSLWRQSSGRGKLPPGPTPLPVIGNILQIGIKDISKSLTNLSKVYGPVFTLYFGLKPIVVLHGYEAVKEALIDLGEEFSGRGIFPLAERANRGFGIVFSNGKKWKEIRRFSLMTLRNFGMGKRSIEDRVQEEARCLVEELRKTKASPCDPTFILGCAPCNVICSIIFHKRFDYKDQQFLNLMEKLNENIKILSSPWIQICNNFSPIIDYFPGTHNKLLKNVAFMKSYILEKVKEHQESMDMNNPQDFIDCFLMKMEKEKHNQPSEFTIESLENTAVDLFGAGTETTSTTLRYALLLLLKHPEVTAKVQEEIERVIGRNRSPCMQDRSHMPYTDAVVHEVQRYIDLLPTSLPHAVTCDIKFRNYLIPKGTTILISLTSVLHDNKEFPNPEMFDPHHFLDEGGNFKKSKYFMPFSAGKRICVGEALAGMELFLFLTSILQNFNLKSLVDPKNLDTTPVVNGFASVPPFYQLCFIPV
# Procedure: as §1
# Huh7 cells = assay: Cellular toxicity in Huh7 replicon cells; details: read-out: HCV genotype 1b replicon CC50; Huh7 cells
# MRC5 cells = assay: Cellular toxicity in MRC5 cells; details: read-out: MRC5 cells CC50; MRC5 cells
# CYP1A2 = target: T1, CYP1A2 (Homo sapiens, UniProt P05177); assay: Metabolism by recombinant human cytochrome P450, CYP1A2; assay type: in vitro ADME; details: recombinant enzyme
# T1 sequence (P05177 1-516): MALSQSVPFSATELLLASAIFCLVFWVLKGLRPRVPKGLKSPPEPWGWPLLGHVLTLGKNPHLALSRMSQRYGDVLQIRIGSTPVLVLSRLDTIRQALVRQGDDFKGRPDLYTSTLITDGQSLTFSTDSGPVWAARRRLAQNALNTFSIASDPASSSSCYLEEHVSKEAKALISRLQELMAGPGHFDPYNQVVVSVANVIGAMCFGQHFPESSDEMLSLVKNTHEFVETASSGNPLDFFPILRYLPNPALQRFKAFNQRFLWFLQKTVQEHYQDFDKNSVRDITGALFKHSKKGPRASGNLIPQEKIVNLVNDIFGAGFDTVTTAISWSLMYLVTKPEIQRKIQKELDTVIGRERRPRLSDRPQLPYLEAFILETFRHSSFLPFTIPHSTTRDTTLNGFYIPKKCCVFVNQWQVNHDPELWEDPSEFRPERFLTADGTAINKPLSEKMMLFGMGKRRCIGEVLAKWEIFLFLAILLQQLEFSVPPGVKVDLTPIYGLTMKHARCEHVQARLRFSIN
# Procedure: […] of compound was incubated with individual bacterially expressed recombinant human cytochromes P450 co-expressed with human NADPH cytochrome P450 reductase. […] Enzyme-selective positive control substrates were tested in parallel.
# [1] = Stability with hepatic microsomal fractions; assay type: in vitro ADME; details: human microsomes 0.5 mg protein/ml, NADPH, 3 μM
# Procedure: The compounds (3 μM) were incubated in duplicate for up to 1 h in the presence of human hepatic microsomal fractions (0.5 mg protein ml^−1 final) at 37 °C. The addition of cofactor solution (NADPH generating system) initiated the reaction and aliquots were removed at 0, 5, 15, 30, 45 and 60 min after the start. The concentrations of the compounds in each sample were determined using specific LC-MS/MS assays. The half-life for the disappearance of each was determined by fitting the concentration-time data with a monophasic exponential model. A control compound (verapamil) was run in parallel to test the enzymatic integrity of the microsomal fractions.
# Caco-2 cells = assay: Caco-2 cell permeability; assay type: in vitro ADME; details: Caco-2 monolayers, 10 μM
# Procedure: Permeability and efflux potential were determined using confluent (≥21 day) monolayers of Caco-2 cells grown on transwell filters. Compounds were added to donor wells at a target concentration of 10 μM and rates of appearance in receiver wells (containing 1% BSA to maintain sink conditions) were determined by liquid chromatography coupled to tandem mass spectrometry (LC-MS/MS).
# Chemical stability, 24 h = assay type: physicochemical; details: 37 °C, remaining
# HIV-IIIb = assay: Anti-HIV activity in MT4 cells; assay type: cell-based, human immunodeficiency virus; details: 5 days
# CYP2B6 = target: T2, CYP2B6 (Homo sapiens, UniProt P20813); assay: Cytochrome P450 enzyme inhibition assay, CYP2B6; assay type: in vitro ADME; parameters: incubated with human hepatic microsomal fractions and NADPH; from tissue; host or cells: human hepatic microsomal fractions; details: human hepatic microsomal fractions, up to 25 μM
# T2 sequence (P20813 1-491): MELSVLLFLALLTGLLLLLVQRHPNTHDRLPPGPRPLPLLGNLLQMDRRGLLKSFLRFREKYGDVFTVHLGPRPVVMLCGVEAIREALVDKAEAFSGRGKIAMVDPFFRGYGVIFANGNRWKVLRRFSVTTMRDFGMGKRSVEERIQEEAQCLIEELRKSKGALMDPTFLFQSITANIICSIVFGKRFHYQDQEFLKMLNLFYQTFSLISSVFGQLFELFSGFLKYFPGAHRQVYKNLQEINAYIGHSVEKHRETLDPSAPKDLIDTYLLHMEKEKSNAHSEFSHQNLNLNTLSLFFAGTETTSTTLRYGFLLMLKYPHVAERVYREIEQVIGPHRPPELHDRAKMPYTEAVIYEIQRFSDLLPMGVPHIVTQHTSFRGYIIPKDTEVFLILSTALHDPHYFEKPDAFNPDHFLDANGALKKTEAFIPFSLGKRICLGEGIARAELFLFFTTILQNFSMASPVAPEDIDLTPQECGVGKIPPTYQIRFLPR
# Procedure: as §1
# MT4 cells = assay: Cytotoxicity in uninfected MT4 cells; details: read-out: MT4 cells CC50
smiles,measurement,setting,value
CSCCC(NC(=O)NCc1ccc(N)cc1)C(=O)N1CCCC1c1ccccc1SC.O=C(O)C(F)(F)F (stereo not shown) [Compound 30],IC50,CYP2C19,> 25 µM
same,"Inhibition of cytochrome P450 activity, IC50 CYP2C19",CYP2C19,Neither compound 29 nor compound 30 significantly inhibited
same,IC50,CYP2C9,> 25 µM
same,"Inhibition of cytochrome P450 activity, IC50 CYP2C9",CYP2C9,Neither compound 29 nor compound 30 significantly inhibited
same,CC50,Huh7 cells,> 100 µM
same,CC50,MRC5 cells,> 100 µM
same,Rate of metabolism by human cytochrome P450 CYP1A2,CYP1A2,< 0.12 pmol/pmol P450/min
same,Rate of metabolism by human cytochrome P450 CYP1A2,CYP1A2; listed as compound 30,Neither compound 29 nor compound 30 was metabolized
same,"Hepatic microsomal stability, T1/2",[1],35.5 min
same,Apparent permeability Forward,Caco-2 cells,19.5 ×10⁻⁶ cm/s
same,Apparent permeability Forward,Caco-2 cells; listed as compound 30,high
same,Apparent permeability Reverse,Caco-2 cells; reverse,39.7 ×10⁻⁶ cm/s
same,24-hour stability HCl (pH 1.0),"Chemical stability, 24 h",92%
same,24-hour stability PBS (pH 7.4),"Chemical stability, 24 h",100%
same,24-hour stability PBS (pH 7.4),"Chemical stability, 24 h; listed as compound 30",not degraded
same,EC50,HIV-IIIb,15 ± 1.2 µM
same,IC50,CYP2B6,> 25 µM
same,"Inhibition of cytochrome P450 activity, IC50 CYP2B6",CYP2B6,Neither compound 29 nor compound 30 significantly inhibited
same,CC50,MT4 cells,> 53 µM
